In patent publication US10478425B2, “5-phenylazaindole derivative having AMPK-activating activity” (Shionogi & Co., Ltd., priority 2016, dated 2019):

Target: T1, Human AMPK α2β2γ1 (Homo sapiens, UniProt O43741+P54646)
T1 construct: The full length cDNAs of human AMPK β2 (NM_005399.3) and human AMPK α2 (NM_006252.3); The full length cDNAs of human AMPK β2 (NM_005399.3); the full length cDNA of human AMPK γ1 (NM_002733.3) had been inserted into pET28b(+); 6×His (N); made in house; host or cells: Escherichia coli BL21 CodonPlus (DE3)-RIL
T1 sequence (P54646 whole entry): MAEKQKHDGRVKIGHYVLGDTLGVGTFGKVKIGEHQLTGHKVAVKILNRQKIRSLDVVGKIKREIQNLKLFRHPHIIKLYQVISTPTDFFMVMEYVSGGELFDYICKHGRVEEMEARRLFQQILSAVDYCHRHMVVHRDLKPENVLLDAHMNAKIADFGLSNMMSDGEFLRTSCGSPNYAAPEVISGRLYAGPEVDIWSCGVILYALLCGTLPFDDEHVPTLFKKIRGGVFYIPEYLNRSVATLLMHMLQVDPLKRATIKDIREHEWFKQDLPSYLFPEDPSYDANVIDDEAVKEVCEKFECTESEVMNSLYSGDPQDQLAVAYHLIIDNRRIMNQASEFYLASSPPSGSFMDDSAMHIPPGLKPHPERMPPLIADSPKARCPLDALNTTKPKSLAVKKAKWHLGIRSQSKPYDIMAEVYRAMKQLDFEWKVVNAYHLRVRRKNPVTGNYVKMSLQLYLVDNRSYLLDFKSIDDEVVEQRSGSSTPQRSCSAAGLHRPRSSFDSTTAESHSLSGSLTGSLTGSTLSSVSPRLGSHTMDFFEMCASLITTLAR
T1 sequence (O43741 whole entry): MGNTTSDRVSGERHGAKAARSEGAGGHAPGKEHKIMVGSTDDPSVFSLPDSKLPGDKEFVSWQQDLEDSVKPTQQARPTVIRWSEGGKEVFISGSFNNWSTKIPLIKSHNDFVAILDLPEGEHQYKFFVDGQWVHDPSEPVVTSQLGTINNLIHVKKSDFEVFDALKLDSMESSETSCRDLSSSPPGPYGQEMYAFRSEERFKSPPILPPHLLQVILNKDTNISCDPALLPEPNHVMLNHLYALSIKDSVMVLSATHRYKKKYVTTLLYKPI
T1 sequence (P54619 whole entry partner): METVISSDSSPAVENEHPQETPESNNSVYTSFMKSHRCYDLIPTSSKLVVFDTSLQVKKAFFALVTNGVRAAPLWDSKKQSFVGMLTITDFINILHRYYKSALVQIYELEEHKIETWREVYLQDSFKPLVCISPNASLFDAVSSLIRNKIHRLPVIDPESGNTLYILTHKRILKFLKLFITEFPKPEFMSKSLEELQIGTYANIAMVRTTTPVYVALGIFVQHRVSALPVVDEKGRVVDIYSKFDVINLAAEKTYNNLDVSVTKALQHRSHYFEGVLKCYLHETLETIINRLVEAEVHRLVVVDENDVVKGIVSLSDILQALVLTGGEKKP
Assay: Test Example 2: activation of phosphorylated human AMPK α2β2γ1 (mobility-shift kinase assay, FL-Peptide 7)
Assay type: biochemical
Settings: for EC150: compound concentration showing 150% relative to the control (100%), human AMPK α2β2γ1 phosphorylated with CaMKK2; for Emax: maximum rate of increase in activity within the measurement range, control = 100%, read-out: Emax
Method: The full length cDNAs of human AMPK β2 (NM_005399.3) and human AMPK α2 (NM_006252.3) were inserted into the MCS1 and MCS2 of the pETDuet-1 vector to prepare a human AMPK β2 and human AMPK α2 (6×His tag at the 5′ terminus) expressing plasmid. The plasmid was cotransfected with an expression plasmid, in which the full length cDNA of human AMPK γ1 (NM_002733.3) had been inserted into pET28b(+), into BL21 CodonPlus (DE3)-RIL to obtain an expression strain. The expression strain was cultured in TB medium, followed by induction with 0.5 mM IPTG, and cultured at 25° C. for 3 hours and then harvested. After ultrasonication, supernatant was collected and applied to Histrap FF column (GE) and RESOUECE Q column (GE) to prepare 12.5 mg of purified sample containing three types of subunit from 1.8 L of broth.
An expression vector, in which the full length cDNA of human CAMKK β (NM_172226.1) had been inserted into pGEX-6P-3, was transfected into BL21 Star (DE3). The expression strain was cultured in TB medium, followed by induction with 0.5 mM IPTG, and cultured at 25° C. for 3 hours and then harvested. After ultrasonication, supernatant was collected and applied to GSTrap FF column (GE) to prepare 14 mg of GST-fused CAMKK β from 720 ml of broth.
Thus, phosphorylation treatment was carried out as pretreatment.
Human AMPK α2β2γ1 in an amount to give a conversion rate of approximately 10% by reaction for 2 hours, and CaMKK2 in an amount capable of sufficiently imparting activity to AMPK for one hour were mixed in a buffer solution consisting of a 50 mM HEPES-NaOH buffer solution (pH 7.0), 100 mM NaCl, 5 mM magnesium chloride, 0.1% bovine serum albumin, 0.2 mM sodium orthovanadate(V), 1 mM ethylene glycol-bis(2-aminoethyl ether)-N,N,N′,N′-tetraacetic acid (EGTA), 5 mM disodium β-glycerophosphate, 1 mM dithiothreitol and 0.2 mM ATP, and the resulting liquid was left to stand at 25° C. for 1 to 1.5 hours to sufficiently phosphorylate AMPK.
After that, to the enzyme liquid, which had been subjected to phosphorylation treatment, a compound dissolved in DMSO was added so as to have a 1% DMSO concentration. The resulting liquid was left to stand for 10 minutes.
To the liquid, a substrate solution consisting of a 50 mM HEPES-NaOH buffer solution (pH 7.0), 100 mM NaCl, 10 mM magnesium chloride, 0.1% bovine serum albumin, 0.2 mM sodium orthovanadate(V), 1 mM ethylene glycol-bis(2-aminoethyl ether)-N,N,N′,N′-tetraacetic acid (EGTA), 5 mM disodium β-glycerophosphate, 2 mM dithiothreitol, 0.4 mM ATP and 3 μM FL-Peptide 7 (manufactured by Caliper Life Sciences, Inc.) was added in equal amount (10 μl in total). The resulting liquid was allowed to react at 25° C. for 2 hours, then 10 μl of 20 mM EDTA was added thereto to stop the reaction.
To detect phosphorylated fluorescent substrates, the reaction mixture was applied to a measuring device, LabChip EZ Reader II manufactured by Caliper Life Science, Inc., for detecting fluorescence by using differences in mobility due to differences in charge. The setting conditions for the device were pressure, −1.5 PSI; upstream voltage, −2250 V; downstream voltage, −400 V; post sample buffer sip time, 40 seconds; final delay, 120 seconds; and peak order, Product First.
A conversion rate was calculated from the peak heights of the obtained substrate and product. The conversion rate when not containing a compound was used as a control, and a concentration dependent curve was made by plotting the rate of increase in activity to the control at each concentration of a compound.

CC(C)(O)/C=C/c1ccc(-c2ccc(-c3nc4cc(O[C@@H]5CO[C@H]6[C@@H]5OC[C@H]6O)[nH]c4cc3F)cc2)cc1 [Compound I-2-15]
EC150: 11 nM
Emax: 505%

OCCSc1ccc(-c2ccc(-c3nc4cc(O[C@@H]5CO[C@H]6[C@@H]5OC[C@H]6O)[nH]c4cc3F)cc2)cc1 [Compound I-2-16]
EC150: 1.8 nM
Emax: 623%

O[C@@H]1CO[C@H]2[C@@H]1OC[C@H]2Oc1cc2nc(-c3ccc([C@@H]4CCCC[C@H]4O)cc3)c(F)cc2[nH]1 [Compound I-2-17]
EC150: 15 nM
Emax: 600%

CS(C)(=O)=Nc1ccc(-c2ccc(-c3nc4cc(O[C@@H]5CO[C@H](CO)[C@@H]5O)[nH]c4cc3F)cc2)cc1 [Compound I-2-19]
EC150: 67 nM
Emax: 192%

O[C@@H]1CO[C@H]2[C@@H]1OC[C@H]2Oc1cc2nc(-c3ccc(-c4ccc(N5CCOCC5)cc4)cc3)c(F)cc2[nH]1 [Compound I-2-20]
EC150: 2.3 nM
Emax: 375%

Clc1cc2[nH]c(O[C@H]3CCOC3)cc2nc1-c1ccc(-c2ccc(OC3CCNC3)cc2)cc1 (some centres unmarked) [Compound I-2-21]
EC150: 13 nM
Emax: 249%

O[C@@H]1CO[C@H]2[C@@H]1OC[C@H]2Oc1cc2nc(-c3ccc(-c4ccc(CN5CCOCC5)cc4)cc3)c(F)cc2[nH]1 [Compound I-2-22]
EC150: 5.9 nM
Emax: 348%

CS(C)(=O)=Nc1ccc(-c2ccc(-c3nc4cc(O[C@@H]5CO[C@H](CO)[C@H]5O)[nH]c4cc3F)cc2)cc1 [Compound I-2-23]
EC150: 28 nM
Emax: 224%

COc1ccc(-c2ccc(-c3nc4cc(O[C@@H]5CO[C@H]6[C@@H]5OC[C@H]6O)[nH]c4cc3F)cc2)cc1 [Compound I-2-24]
EC150: 11 nM
Emax: 364%

CN(C)S(=N)(=O)c1ccc(-c2ccc(-c3nc4cc(O[C@@H]5CO[C@H](CO)C5)[nH]c4cc3F)cc2)cc1 (some centres unmarked) [Compound I-2-25]
EC150: 1.9 nM
Emax: 426%

CO[C@H]1[C@@H](CO)OC[C@H]1Oc1cc2nc(-c3ccc(-c4ccc(N=S(C)(C)=O)cc4)cc3)c(F)cc2[nH]1 [Compound I-2-26]
EC150: 8.6 nM
Emax: 298%

O[C@@H]1CO[C@H]2[C@@H]1OC[C@H]2Oc1cc2nc(-c3ccc(-c4ccc(OC5CNOC5)cc4)cc3)c(F)cc2[nH]1 (some centres unmarked) [Compound I-2-27]
EC150: 3.7 nM
Emax: 375%

O[C@@H]1CO[C@H]2[C@@H]1OC[C@H]2Oc1cc2nc(-c3ccc(-c4ccc(OC5CNC[C@H]5F)cc4)cc3)c(F)cc2[nH]1 (some centres unmarked) [Compound I-2-28]
EC150: 4.4 nM
Emax: 398%

COCCCc1ccc(-c2ccc(-c3nc4cc(O[C@@H]5CO[C@H]6[C@@H]5OC[C@H]6O)[nH]c4cc3F)cc2)cc1 [Compound I-2-29]
EC150: 48 nM
Emax: 367%

OCCCc1ccc(-c2ccc(-c3nc4cc(O[C@@H]5CO[C@H]6[C@@H]5OC[C@H]6O)[nH]c4cc3F)cc2)cc1 [Compound I-2-30]
EC150: 4.3 nM
Emax: 605%

O[C@@H]1CO[C@H]2[C@@H]1OC[C@H]2Oc1cc2nc(-c3ccc(-c4ccc(OCC5CCCO5)cc4)cc3)c(F)cc2[nH]1 (some centres unmarked) [Compound I-2-33]
EC150: 20 nM
Emax: 362%

COCCOC1CCN(c2ccc(-c3nc4cc(O[C@@H]5CO[C@H]6[C@@H]5OC[C@H]6O)[nH]c4cc3F)cc2)CC1 [Compound I-2-34]
EC150: 20 nM
Emax: 425%

O[C@@H]1CO[C@H]2[C@@H]1OC[C@H]2Oc1cc2nc(-c3ccc(-c4ccc(Oc5cccnc5)cc4)cc3)c(F)cc2[nH]1 [Compound I-2-36]
EC150: 43 nM
Emax: 385%

COCCN(C(C)=O)c1ccc(-c2ccc(-c3nc4cc(O[C@@H]5CO[C@H]6[C@@H]5OC[C@H]6O)[nH]c4cc3F)cc2)cc1 [Compound I-2-37]
EC150: 4.5 nM
Emax: 415%

CO[C@@H]1[C@@H](CO)OC[C@H]1Oc1cc2nc(-c3ccc(-c4ccc(N=S(C)(C)=O)cc4)cc3)c(F)cc2[nH]1 [Compound I-2-38]
EC150: 9.2 nM
Emax: 597%

COCCOc1ccc(-c2ccc(-c3nc4cc(O[C@@H]5CO[C@H]6[C@@H]5OC[C@H]6O)[nH]c4cc3F)cc2)cn1 [Compound I-2-40]
EC150: 16 nM
Emax: 384%

O=C1OCCN1c1ccc(-c2ccc(-c3nc4cc(O[C@@H]5CO[C@H]6[C@@H]5OC[C@H]6O)[nH]c4cc3F)cc2)cc1 [Compound I-2-41]
EC150: 0.8 nM
Emax: 634%

CS(C)(=O)=Nc1ccc(-c2ccc(-c3nc4cc(O[C@@H]5CO[C@H](CO)[C@H]5F)[nH]c4cc3F)cc2)cc1 [Compound I-2-42]
EC150: 2.6 nM
Emax: 647%

CS(C)(=O)=Nc1ccc(-c2ccc(-c3nc4cc(O[C@@H]5CO[C@H](CO)C5(F)F)[nH]c4cc3F)cc2)cc1 [Compound I-2-43]
EC150: 6.2 nM
Emax: 514%

O=C(C1CCN(c2ccc(-c3nc4cc(O[C@@H]5CO[C@H]6[C@@H]5OC[C@H]6O)[nH]c4cc3F)cc2)CC1)N1CCCC1 [Compound I-2-44]
EC150: 35 nM
Emax: 661%

O[C@@H]1CO[C@H]2[C@@H]1OC[C@H]2Oc1cc2nc(-c3ccc(-c4ccc(Oc5ccncc5)cc4)cc3)c(F)cc2[nH]1 [Compound I-2-45]
EC150: 5 nM
Emax: 613%

CNS(C)(=O)=Nc1ccc(-c2ccc(-c3nc4cc(O[C@@H]5CO[C@H](CO)C5)[nH]c4cc3F)cc2)cc1 (some centres unmarked) [Compound I-2-46]
EC150: 2.8 nM
Emax: 699%

CNC(=O)COc1ccc(-c2ccc(-c3nc4cc(O[C@@H]5CO[C@H]6[C@@H]5OC[C@H]6O)[nH]c4cc3F)cc2)cc1 [Compound I-2-47]
EC150: 2.2 nM
Emax: 635%

COCCOCCOc1ccc(-c2ccc(-c3nc4cc(O[C@@H]5CO[C@H]6[C@@H]5OC[C@H]6O)[nH]c4cc3F)cc2)cc1 [Compound I-2-48]
EC150: 1.1 nM
Emax: 635%

O=C(c1ccc(-c2ccc(-c3nc4cc(O[C@@H]5CO[C@H](CO)C5)[nH]c4cc3F)cc2)cc1)N1CCCC1 [Compound I-2-49]
EC150: 0.88 nM
Emax: 684%

COC(=O)N1CCC(Oc2ccc(-c3ccc(-c4nc5cc(O[C@@H]6CO[C@H]7[C@@H]6OC[C@H]7O)[nH]c5cc4F)cc3)cc2)C1 (some centres unmarked) [Compound I-2-51]
EC150: 9.7 nM
Emax: 590%

COCCOc1ccc(-c2ccc(-c3nc4cc(O[C@@H]5CO[C@H]6[C@@H]5OC[C@H]6O)[nH]c4cc3F)cc2)nc1 [Compound I-2-52]
EC150: 7.2 nM
Emax: 532%

CN1CCN(c2ccc(-c3ccc(-c4nc5cc(O[C@@H]6CO[C@H]7[C@@H]6OC[C@H]7O)[nH]c5cc4F)cc3)cc2)C1=O [Compound I-2-53]
EC150: 4.2 nM
Emax: 638%

CNC(=O)CCOc1ccc(-c2ccc(-c3nc4cc(O[C@@H]5CO[C@H]6[C@@H]5OC[C@H]6O)[nH]c4cc3F)cc2)cc1 [Compound I-2-54]
EC150: 1.7 nM
Emax: 633%
